Assay results reported in patent US8871796B2, “Diaryl ether derivatives as notch sparing gamma secretase inhibitors” (Merck Sharp & Dohme Corp., priority 2009, dated 2014).
Read-outs that look alike come from different tables or passages of the source.

Test: APP processing: AlphaLisa assay of secreted Aβ40 and Aβ42 from SP4CT cells
Format: cell-based
Settings: Homo sapiens, SH-SY5Y cells expressing amyloid β protein (SP4CT cells)
Experimental: APP Processing (Assay Quantitates Secreted Aβ Analytes from Cell Lines):
The effect of compounds on the abundance of Aβ40 and Aβ42 peptides generated from SH-SY5Y cells expressing amyloid β protein (SP4CT cells) are determined by an AlphaLisa™ assay. Analogous to an ELISA assay, generation of […] AlphaLisa™ assay requires “donor” and “acceptor” beads to be brought in close proximity by specific antibody recognition of either Aβ40 or Aβ42 peptides. The assay is accomplished by removing media from compound-treated SP4CT cells to two different microplates, followed by the addition of donor beads conjugated with streptavidin binding a biotinylated anti-amyloid β monocolonal antibody (clone 4G8). Acceptor beads directly conjugated with anti-Aβ40 monoclonal antibody (G210) are added to one microplate and anti-Aβ42 monoclonal antibody (12F4) acceptor beads were added to the other. Abundance of Aβ40 and Aβ42 is directly proportional to the luminescent signal generated following excitation of donor beads by laser light.

[1] = read-out: IC50, inhibition of production of Aβ40 peptide
[2] = read-out: IC50, inhibition of production of Aβ42 peptide

CCn1nc(-c2cccc(C(C)(C)NS(=O)(=O)CC(F)(F)F)c2)cc1Oc1ccc(CNCc2cccnc2)cc1 [Example 94, N-(1-{3-[1-ethyl-5-(4-{[(pyridin-3-ylmethyl)amino]methyl}phenoxy)-1H-pyrazol-3-yl]phenyl}-1-methylethyl)-2,2,2-trifluoroethanesulfonamide]
IC50 [1]: < 200 nM | IC50 [2]: < 200 nM

CC(C)(NS(=O)(=O)CC(F)(F)F)c1cccc(-c2cc(Oc3ccc(C(F)(F)F)cc3)n(CCO)n2)c1 [Example 105, 2,2,2-trifluoro-N-[1-(3-{1-(2-hydroxyethyl)-5-[4-(trifluoromethyl)phenoxy]-1H-pyrazol-3-yl}phenyl)-1-methylethyl]ethanesulfonamide]
IC50 [1]: < 200 nM | IC50 [2]: < 200 nM

CCn1nc(-c2cccc(C(C)(C)NS(=O)(=O)CC(F)(F)F)c2)cc1Oc1ccc(C(F)(F)F)cc1F [Example 5, N-[1-(3-{1-ethyl-5-[2-fluoro-4-(trifluoromethyl)phenoxy]-1H-pyrazol-3-yl}phenyl)-1-methylethyl]-2,2,2-trifluoroethanesulfonamide]
IC50 [1]: < 200 nM | IC50 [2]: < 200 nM

CCn1nc(-c2cccc(C3(NS(=O)(=O)NC4CCC(F)(F)C4)COC3)c2)cc1Oc1ccc(C(F)(F)F)cc1 (stereo not drawn) [Example 99]
IC50 [1]: < 200 nM | IC50 [2]: < 200 nM

CCn1nc(-c2cccc(C(C)(C)NS(=O)(=O)CC(F)(F)F)c2)cc1Oc1ccc(CF)cc1 [Example 63, N-[1-(3-{1-ethyl-5-[4-(fluoromethyl)phenoxy]-1H-pyrazol-3-yl}phenyl)-1-methylethyl]-2,2,2-trifluoroethanesulfonamide]
IC50 [1]: < 200 nM | IC50 [2]: < 200 nM

CCn1nc(-c2cccc(C(C)(C)NS(=O)(=O)CC(F)(F)F)c2)cc1Oc1ccc(C(F)(F)F)cc1 [Example 1, N-[1-(3-{1-ethyl-5-[4-(trifluoromethyl)phenoxy]-1H-pyrazol-3-yl}phenyl)-1-methylethyl]-2,2,2-trifluoroethanesulfonamide]
IC50 [1]: < 200 nM | IC50 [2]: < 200 nM

CCn1nc(-c2cccc(C(C)(C)NS(=O)(=O)CC(F)(F)F)c2)cc1Oc1ccc(CNCc2ccccn2)cc1 [Example 77, N-(1-{3-[1-ethyl-5-(4-{[(pyridin-2-ylmethyl)amino]methyl}phenoxy)-1H-pyrazol-3-yl]phenyl}-1-methylethyl)-2,2,2-trifluoroethanesulfonamide]
IC50 [1]: < 200 nM | IC50 [2]: < 200 nM

CCn1nc(-c2cccc(C(C)(C)NS(=O)(=O)CC(F)(F)F)c2)cc1Oc1ccc(CN2CCOCC2)cc1 [Example 78, N-[1-(3-{1-ethyl-5-[4-(morpholin-4-ylmethyl)phenoxy]-1H-pyrazol-3-yl}phenyl)-1-methylethyl]-2,2,2-trifluoroethanesulfonamide]
IC50 [1]: < 200 nM | IC50 [2]: < 200 nM

CCn1nc(-c2cccc(C(C)(C)NS(=O)(=O)CC(F)(F)F)c2)cc1Oc1ccc(C(C)C)cc1 [Example 58, N-(1-{3-[1-ethyl-5-(4-isopropylphenoxy)-1H-pyrazol-3-yl]phenyl}-1-methylethyl)-2,2,2-trifluoroethanesulfonamide]
IC50 [1]: < 200 nM | IC50 [2]: < 200 nM

CCn1nc(Oc2ccc(F)cc2)cc1-c1cccc(C(C)(C)NS(=O)(=O)NCC(F)(F)F)c1 [Example 55, N-(1-{3-[1-ethyl-3-(4-fluorophenoxy)-1H-pyrazol-5-yl]phenyl}-1-methylethyl)-N'-(2,2,2-trifluoroethyl)sulfamide]
IC50 [1]: < 200 nM | IC50 [2]: < 200 nM

CCn1nc(-c2cccc(C(C)(C)NS(=O)(=O)CC(F)(F)F)c2)cc1Oc1ccc(CN2CC=C(C(F)(F)F)CC2)cc1 [Example 80, N-(1-{3-[1-ethyl-5-(4-{[4-(trifluoromethyl)-3,6-dihydropyridin-1(2H)-yl]methyl}phenoxy)-1H-pyrazol-3-yl]phenyl}-1-methylethyl)-2,2,2-trifluoroethanesulfonamide]
IC50 [1]: < 200 nM | IC50 [2]: < 200 nM

CCn1nc(Oc2ccc(C(F)(F)F)cc2)cc1-c1cccc(C(C)(C)NS(=O)(=O)NCC(C)C)c1 [Example 17, N-[1-(3-{1-ethyl-3-[4-(trifluoromethyl)phenoxy]-1H-pyrazol-5-yl}phenyl)-1-methylethyl]-N′-isobutylsulfamide]
IC50 [1]: < 200 nM | IC50 [2]: < 200 nM

CCn1nc(-c2cccc(C(C)(C)NS(=O)(=O)CC(F)(F)F)c2)cc1Oc1ccc(C(C)F)cc1 (stereo not drawn) [Example 68, N-[1-(3-{1-ethyl-5-[4-(1-fluoroethyl)phenoxy]-1H-pyrazol-3-yl}phenyl)-1-methylethyl]-2,2,2-trifluoroethanesulfonamide]
IC50 [1]: < 200 nM | IC50 [2]: < 200 nM

CCn1nc(-c2cccc(C(C)(C)NS(=O)(=O)CC(F)(F)F)c2)cc1Oc1ccc(C(F)F)cc1 [Example 64, N-[1-(3-{5-[4-(difluoromethyl)phenoxy]-1-ethyl-1H-pyrazol-3-yl}phenyl)-1-methylethyl]-2,2,2-trifluoroethanesulfonamide]
IC50 [1]: < 200 nM | IC50 [2]: < 200 nM

CCn1nc(-c2cccc(C(C)(C)NS(=O)(=O)CC(F)(F)F)c2)cc1Oc1ccc(CO)cc1 [Example 62, N-[1-(3-{1-ethyl-5-[4-(hydroxymethyl)phenoxy]-1H-pyrazol-3-yl}phenyl)-1-methylethyl]-2,2,2-trifluoroethanesulfonamide]
IC50 [1]: < 200 nM | IC50 [2]: < 200 nM

CCn1nc(-c2cccc(C3(NS(=O)(=O)CC(F)(F)F)CC3)c2)cc1Oc1ccc(C(F)(F)F)cc1 [Example 28, N-[1-(3-{1-ethyl-5-[4-(trifluoromethyl)phenoxy]-1H-pyrazol-3-yl}phenyl)cyclopropyl]-2,2,2-trifluoroethanesulfonamide]
IC50 [1]: < 200 nM | IC50 [2]: < 200 nM

CCn1nc(Oc2ccc(C(F)(F)F)cc2)cc1-c1cccc(C2(NS(=O)(=O)NC3CCCC3)CC2)c1 [Example 29, N-cyclopentyl-N′-[1-(3-{1-ethyl-3-[4-(trifluoromethyl)phenoxy]-1H-pyrazol-5-yl}phenyl)cyclopropyl] sulfamide]
IC50 [1]: < 200 nM | IC50 [2]: < 200 nM

CCn1nc(-c2cccc(C(C)(C)NS(=O)(=O)CC(F)(F)F)c2)cc1Oc1ccc(CN2CCN(C(C)=O)CC2)cc1 [Example 93, N-{1-[3-(5-{4-[(4-acetylpiperazin-1-yl)methyl]phenoxy}-1-ethyl-1H-pyrazol-3-yl)phenyl]-1-methylethyl}-2,2,2-trifluoroethanesulfonamide]
IC50 [1]: < 200 nM | IC50 [2]: < 200 nM

CCn1nc(-c2cccc(C(C)(C)NS(=O)(=O)N3CCCC3)c2)cc1Oc1ccc(C(F)(F)F)cc1 [Example 11, N-[1-(3-{1-ethyl-5-[4-(trifluoromethyl)phenoxy]-1H-pyrazol-3-yl}phenyl)-1-methylethyl]pyrrolidine-1-sulfonamide]
IC50 [1]: < 200 nM | IC50 [2]: < 200 nM

CCn1nc(-c2cccc(C3(NS(=O)(=O)CC(F)(F)F)CCC3)c2)cc1Oc1ccc(C(F)(F)F)cc1 [Example 109, N-[1-(3-{1-ethyl-5-[4-(trifluoromethyl)phenoxy]-1H-pyrazol-3-yl}phenyl)cyclobutyl]-2,2,2-trifluoroethanesulfonamide]
IC50 [1]: < 200 nM | IC50 [2]: < 200 nM

CCn1nc(-c2cccc(C(C)(C)NS(=O)(=O)CC(F)(F)F)c2)cc1Oc1ccc(C(F)C(F)(F)F)cc1 (stereo not drawn) [Example 72, N-[1-(3-{1-ethyl-5-[4-(1,2,2,2-tetrafluoroethyl)phenoxy]-1H-pyrazol-3-yl}phenyl)-1-methylethyl]-2,2,2-trifluoroethanesulfonamide]
IC50 [1]: < 200 nM | IC50 [2]: < 200 nM

CNC(=O)Cn1nc(-c2cccc(C3(NS(=O)(=O)CC(F)(F)F)COC3)c2)cc1Oc1ccc(C(F)(F)F)cc1 [Example 132, 2-[5-(4-trifluoromethylphenoxy)-3-(3-{3-[(2,2,2-trifluoroethylsulfonyl)amino]oxetan-3-yl}phenyl)-1H-pyrazol-1-yl]-N-methylacetamide]
IC50 [1]: < 200 nM | IC50 [2]: < 200 nM

CCn1nc(Oc2ccc(C(F)(F)F)cc2)cc1-c1cccc(C2(NS(=O)(=O)CC(F)(F)F)CC2)c1 [Example 31, N-[1-(3-{1-ethyl-3-[4-(trifluoromethyl)phenoxy]-1H-pyrazol-5-yl}phenyl)cyclopropyl]-2,2,2-trifluoroethanesulfonamide]
IC50 [1]: < 200 nM | IC50 [2]: < 200 nM

CN(C)C(=O)Cn1nc(-c2cccc(C3(NS(=O)(=O)CC(F)(F)F)COC3)c2)cc1Oc1ccc(C(F)(F)F)cc1 [Example 131, 2-[5-(4-trifluoromethylphenoxy)-3-(3-{3-[(2,2,2-trifluoroethylsulfonyl)amino]oxetan-3-yl}phenyl)-1H-pyrazol-1-yl]-N,N-dimethylacetamide]
IC50 [1]: < 200 nM | IC50 [2]: < 200 nM

CCn1nc(Oc2ccc(C(F)(F)F)cc2)cc1-c1ccc2c(c1)CC(NS(=O)(=O)NC1CCC1)C2 (stereo not drawn) [Example 125, N-cyclobutyl-N′-(5-{1-ethyl-3-[4-(trifluoromethyl)phenoxy]-1H-pyrazol-5-yl}-2,3-dihydro-1H-inden-2-yl)sulfamide]
IC50 [1]: < 200 nM | IC50 [2]: < 200 nM

CCn1nc(-c2cccc(C3(NS(=O)(=O)CC(F)(F)F)COC3)c2)cc1Oc1ccc(C(F)(F)F)cc1 [Example 95, N-[3-(3-{1-ethyl-5-[4-(trifluoromethyl)phenoxy]-1H-pyrazol-3-yl}phenyl)oxetan-3-yl]-2,2,2-trifluoroethanesulfonamide]
IC50 [1]: < 200 nM | IC50 [2]: < 200 nM

CCn1nc(Oc2ccc(C(F)(F)F)cc2)cc1-c1cccc(C(C)(C)NS(=O)(=O)NC2CCC2)c1 [Example 16, N-cyclobutyl-N′-[1-(3-{1-ethyl-3-[4-(trifluoromethyl)phenoxy]-1H-pyrazol-5-yl}phenyl)-1-methylethyl]sulfamide]
IC50 [1]: < 200 nM | IC50 [2]: < 200 nM
